Data: patent US12398125B2, “Nitrogen-containing saturated heterocyclyl derivative” (Sumitomo Pharma Co., Ltd., priority 2022, dated 2025)

Key:
Type in all cases: cell-based
[1] = tested on: α-synuclein aggregate in dopamine neurospheroid prepared from human iPS cells with a mutation in PLA2G6 gene; experiment: Test 5: suppressing the accumulation of α-synuclein aggregate with dopamine neurospheroid; conditions: 120 h, DMSO = 100%, compound added day 21, measured day 26, PLA2G6 mutant; for activity at 0.1 µM: 100 nM, read-out: Amount of aggregate (%) 100 nM; for activity at 1 µM: 1000 nM, read-out: Amount of aggregate (%) 1000 nM
Protocol: Test 5: Evaluation of Suppressing the Accumulation of α-Synuclein Aggregate with Dopamine Neurospheroid Prepared from Human iPS Cells with a Mutation in PLA2G6 Gene
(§1) (1) Induction of Differentiation from Human iPS Cell to Neural Cell
(§2) Dopaminergic progenitor cells were induced from PLA2G6 gene mutant iPS cells with dopaminergic neuron differentiation kit (Thermo Fisher Scientific Inc., cat #A3147701). Dopamine neurospheroid was prepared from the induced dopaminergic progenitor cells by three-dimensional culture system, and preserved with BrainPhys Neuronal Medium (STEMCELL Technologies, cat #ST-05793) comprising NeuroCult SM1 Neuronal Supplement, N2 Supplement-A, 20 ng/mL BDNF, 20 ng/mL GDNF, 1 mM dibutyryl cAMP, and 200 nM ascorbic acid. Half of the culture medium was replaced every 3 or 4 days after the induction of differentiation.
The test compound was diluted with the culture medium so as to be twice the final concentration, and an equal volume of the twice-concentrated solution was added to each well when half of the culture medium was replaced on day 21 after induction of differentiation.
(§3) (2) Evaluation of the Amount of α-Synuclein Aggregate
(§4) From the dopamine neurospheroid 26 days after the induction of differentiation, proteins were extracted with a TBS solution containing 1% TritionX-100, and the extracted proteins were subjected to a protein analysis with Simple Western system (Protein Simple, Inc., cat #SM-W008) using an α-synuclein antibody (Thermo Fisher Scientific Inc., cat #AHB0261) to measure the amount of the α-synuclein aggregate.
(§5) The amount of the aggregate in the neurospheroid added with each test compound was measured. Assuming that the amount of the aggregate in the neurospheroid added with a DMSO solution is 100%, the amount of the aggregate in the test samples was evaluated.

[2] = tested on: α-synuclein aggregate in neurospheroid prepared from human iPS cells with a mutation in PLA2G6 gene; experiment: Test 3: reducing the accumulation of α-synuclein aggregate with neurospheroid; conditions: 120 h, DMSO = 100%, compound added day 10, measured day 15 after induction of differentiation; for activity at 0.1 µM: 100 nM, read-out: Amount of aggregate (%) 100 nM; for activity at 1 µM: 1000 nM, read-out: Amount of aggregate (%) 1000 nM
Protocol: Test 3: Evaluation of Reducing the Accumulation of α-Synuclein Aggregate with Neurospheroid Prepared from Human iPS Cells with a Mutation in PLA2G6 Gene (1) Induction of Differentiation from Human iPS Cell to Neural Cell
as §2, with “Neural stem” for “Dopaminergic progenitor”, “PSC Neuronal Induction Medium” for “dopaminergic neuron differentiation kit”, “#A1647801). Neurospheroid” for “#A3147701). Dopamine neurospheroid”, “neural stem” for “dopaminergic progenitor”
The test compound was diluted with the culture medium so as to be twice the final concentration, and an equal volume of the twice-concentrated solution was added to each well when half of the culture medium was replaced on day 10 after induction of differentiation.
as §3
as §4, with “the” for “the dopamine”, “neurospheroid 15” for “neurospheroid 26”
as §5

[3] = tested on: α-synuclein aggregate in neurospheroid prepared from human iPS cells with a mutation in PLA2G6 gene; experiment: Test 2: suppressing the accumulation of α-synuclein aggregate with neurospheroid; conditions: 120 h, DMSO = 100%, compound added day 4, measured day 9 after induction of differentiation; for activity at 0.1 µM: 100 nM, read-out: Amount of aggregate (%) 100 nM; for activity at 1 µM: 1000 nM, read-out: Amount of aggregate (%) 1000 nM
Protocol: Test 2: Evaluation of Suppressing the Accumulation of α-Synuclein Aggregate with Neurospheroid Prepared from Human iPS Cells with a Mutation in PLA2G6 Gene
as §1
as §2, with “Neural stem” for “Dopaminergic progenitor”, “PSC Neuronal Induction Medium” for “dopaminergic neuron differentiation kit”, “#A1647801). Neurospheroid” for “#A3147701). Dopamine neurospheroid”, “neural stem” for “dopaminergic progenitor”, “on day 2 and day” for “every 3 or”, “4” for “4 days”
The test compound was diluted with the culture medium so as to be twice the final concentration, and an equal volume of the twice-concentrated solution was added to each well when half of the culture medium was replaced on day 4 after induction of differentiation.
as §3
as §4, with “the” for “the dopamine”, “neurospheroid 9” for “neurospheroid 26”
Assuming that the amount of the aggregate in the neurospheroid added with a DMSO solution is 100%, the amount of the aggregate in the neurospheroid added with each test compound was evaluated.

[4] = tested on: α-synuclein aggregate in dopamine neurospheroid prepared from human iPS cells with a mutation in GBA1 gene; experiment: Test 11: reducing the accumulation of α-synuclein aggregate with dopamine neurospheroid; conditions: DMSO = 100%, compound added day 40, measured day 44, GBA1 mutant
Protocol: Test 11: Evaluation of Reducing the Accumulation of α-Synuclein Aggregate with Dopamine Neurospheroid Prepared from Human iPS Cells with a Mutation in GBA1 Gene
as §1
as §2, with “GBA1” for “PLA2G6”, “days.” for “days after the induction of differentiation.”
The test compound was diluted with the culture medium so as to be twice the final concentration, and an equal volume of the twice-concentrated solution was added to each well when half of the culture medium was replaced on day 40 after induction of differentiation.
as §3
as §4, with “neurospheroid 44” for “neurospheroid 26”
as §5

Row | SMILES | activity at 0.1 µM [1] [%] | activity at 1 µM [1] [%] | activity at 0.1 µM [2] [%] | activity at 1 µM [2] [%] | activity at 0.1 µM [3] [%] | activity at 1 µM [3] [%] | Amount of aggregate (%) 100 nM [4] [%] | Amount of aggregate (%) 1000 nM [4] [%]
1 | CCC1(C(=O)N2CCC(c3cnc(C(F)(F)F)cc3C)CC2)COC1 [Example 32] | 3 | 0 | 29 | 96 | 18 | 5 | – | –
2 | CC1(C(=O)N2CCC(c3ccc(C(F)(F)F)nc3)CC2)COC1 [Example 1, (3-Methyloxetan-3-yl){4-[6-(trifluoromethyl)pyridin-3-yl]piperidin-1-yl}methanone] | 17 | 21 | 20 | 30 | 14 | 16 | 23 | 14
3 | CN1CC(C)(C(=O)N2CCC(c3cccnc3C(F)(F)F)CC2)C1 [Example 42, (1,3-dimethylazetidin-3-yl){4-[2-(trifluoromethyl)pyridin-3-yl]piperidin-1-yl}methanone] | 17 | 11 | 28 | 45 | 27 | 9 | 18 | 8
4 | CC1(C(=O)N2CCC(c3cnc(C(F)(F)F)c(F)c3)CC2)COC1 [Example 29, {4-[5-fluoro-6-(trifluoromethyl)pyridin-3-yl]piperidin-1-yl}(3-methyloxetan-3-yl)methanone] | 9 | 8 | 42 | 60 | 24 | 14 | – | –
5 | CCC1(C(=O)N2CCC(c3ccc(C(F)(F)F)nc3)CC2)COC1 [Example 5] | 14 | 18 | 22 | 70 | 22 | 90 | – | –
6 | CC1(C(=O)N2CCC(c3cncc(C(F)(F)F)c3)CC2)CNC1 [Example 36] | – | – | – | – | 78 | 81 | – | –
7 | O=C(C1CCOC1)N1CCC(c2ccc(C(F)(F)F)nc2)CC1 (stereo not shown) [Example 24] | – | – | – | – | 46 | 39 | – | –
8 | C[C@H]1C[C@@H](c2ccc(C(F)(F)F)nc2)CCN1C(=O)C1(C)COC1 [Example 16] | – | – | – | – | 26 | 106 | – | –
9 | CC1(C(=O)N2CCC(c3ccc(C(F)(F)F)nc3)C2)COC1 (stereo not shown) [Example 14] | – | – | – | – | 37 | 22 | – | –
10 | CN1CC(C)(C(=O)N2CCC(c3ccc(C(F)(F)F)cn3)CC2)C1 [Example 45] | 17 | 8 | 46 | 76 | 9 | 4 | – | –
11 | CC1(C(=O)N2CCC(c3ccc(C(F)(F)F)nc3)CC2)CCOCC1 [Example 23] | – | – | – | – | 23 | 49 | – | –
12 | CC1(C(=O)N2CCC(c3ccncc3C(F)(F)F)CC2)COC1 [Example 53] | – | – | – | – | 106 | 82 | – | –
13 | CC1(C(=O)N2CCCC(c3ccc(C(F)(F)F)nc3)C2)COC1 (stereo not shown) [Example 11] | – | – | – | – | 3 | 97 | – | –
14 | CC1(C(=O)N2CCC(c3cnccc3C(F)(F)F)CC2)CNC1 [Example 35] | 27 | 38 | 16 | 19 | 28 | 28 | – | –
15 | CC1(C(=O)N2CCC(c3ccc(C(F)(F)F)cn3)CC2)COC1 [Example 9] | 18 | 23 | 10 | 20 | 8 | 50 | – | –
16 | CC1(C(=O)N2CCC(c3ccc(C(F)(F)F)cn3)CC2)CNC1 [Example 37] | – | – | – | – | 13 | 106 | – | –
17 | Cc1cc(C(F)(F)F)ncc1C1CCN(C(=O)C2(C)COC2)CC1 [Example 31, (3-methyloxetan-3-yl){4-[4-methyl-6-(trifluoromethyl)pyridin-3-yl]piperidin-1-yl}methanone] | – | – | – | – | 14 | 1 | – | –
18 | CCC1(C(=O)N2CCC(c3ccc(C(F)(F)F)cn3)CC2)COC1 [Example 10] | – | – | – | – | 25 | 29 | – | –
19 | CC1(C)CN(C(=O)N2CCC(c3ccc(C(F)(F)F)nc3)CC2)CCO1 [Example 61] | – | – | – | – | 72 | 49 | – | –
20 | CC1(C(=O)N2CCC(c3ccc(C(F)(F)F)nn3)CC2)COC1 [Example 57] | – | – | – | – | 88 | 50 | – | –
21 | CC1(C(=O)N2CCC(F)(c3ccc(C(F)(F)F)nc3)CC2)COC1 [Example 21] | – | – | – | – | 73 | 77 | – | –
22 | CN1CC(C)(C(=O)N2CCC(c3ccc(C(F)(F)F)nc3)C2)C1 (stereo not shown) [Example 47] | – | – | – | – | 1 | 55 | – | –
23 | CC1(C(=O)N2CCC(c3ccnc(C(F)(F)F)c3)CC2)COC1 [Example 52] | – | – | – | – | 36 | 100 | – | –
